Measured values taken from patent US9376425B2, “Heterocyclic compounds as MDM2 inhibitors for the treatment of cancer” (AMGEN INC., priority 2011, dated 2016).

Target: T1, human MDM2 (GST-hMDM2 1-188), interaction with biotinylated-p53 (1-83) (Homo sapiens, UniProt Q00987)
T1 construct: Amino acid residues 1-188 of human MDM2 were expressed; made in house; host or cells: Escherichia coli
Test: improved HTRF assay (HTRF2 assay), inhibition of HDM2-p53 interaction
Format: binding
Conditions: 0.2 nM GST-hMDM2, 0.5 nM biotinylated-p53, 100 mM KF
Outline: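 GST-hMDM2 preincubated 20 min at RT with serially diluted compound, then biotinylated p53 (1-83, E. coli) added for 60 min. Detection with SA-XLent, anti-GST cryptate and KF, equilibrated >4 h; final DMSO 2%. TR-FRET read; % inhibition calculated relative to nutlin-3.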

T1 sequence (Q00987 1-188): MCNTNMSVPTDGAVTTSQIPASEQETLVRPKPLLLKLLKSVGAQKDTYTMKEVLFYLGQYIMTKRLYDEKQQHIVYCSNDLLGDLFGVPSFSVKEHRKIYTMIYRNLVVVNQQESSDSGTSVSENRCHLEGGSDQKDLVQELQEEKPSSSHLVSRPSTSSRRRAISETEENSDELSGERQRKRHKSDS

Row | Molecule | IC50
1 | CC(C)(C)S(=O)(=O)[C@H]1CCCC[C@@H]1N1C(=O)[C@@H](CC(=O)O)O[C@H](c2cccc(Cl)c2)[C@H]1c1ccc(Cl)cc1 [Example 249, 2-((2R,5R,6R)-4-((1S,2S)-2-(tert-butylsulfonyl)cyclohexyl)-6-(3-chlorophenyl)-5-(4-chlorophenyl)-3-oxomorpholin-2-yl)acetic acid] | 4 nM
2 | (2R,5R,6R)-4-((S)-2-(tert-Butylsulfonyl)-1-cyclopropylethyl)-6-(3-chlorophenyl)-5-(4-chlorophenyl)-2-((3-methyl-1H-1,2,4-triazol-5-yl)methyl)morpholin-3-one and (2S,5R,6R)-4-((S)-2-(tert-butylsulfonyl)-1-cyclopropylethyl)-6-(3-chlorophenyl)-5-(4-chlorophenyl)-2-((3-methyl-1H-1,2,4-triazol-5-yl)methyl)morpholin-3-one [Example 391] | 4 nM
3 | CC[C@@H](CN(c1ccccc1F)S(=O)(=O)C1CC1)N1C(=O)[C@@H](CC(=O)NS(C)(=O)=O)O[C@H](c2cccc(Cl)c2)[C@H]1c1ccc(Cl)cc1 (single isomer, unassigned) [Example 240, 2-((2R,5R,6R)-6-(3-chlorophenyl)-5-(4-chlorophenyl)-4-((S)-1-(N-(2-fluorophenyl)cyclopropanesulfonamido)butan-2-yl)-3-oxomorpholin-2-yl)-N-(methylsulfonyl)acetamide or 2-((2S,5R,6R)-6-(3-chlorophenyl)-5-(4-chlorophenyl)-4-((S)-1-(N-(2-fluorophenyl)cyclopropanesulfonamido)butan-2-yl)-3-oxomorpholin-2-yl)-N-(methylsulfonyl)acetamide] | 11 nM
4 | C[C@H]1CCCN1S(=O)(=O)C[C@H](C1CC1)N1C(=O)[C@@H](CC(=O)O)O[C@H](c2cccc(Cl)c2)[C@H]1c1ccc(Cl)cc1 (single isomer, unassigned) [Example 297, 2-((2R,5R,6R)-6-(3-Chlorophenyl)-5-(4-chlorophenyl)-4-((S)-1-cyclopropyl-2-(((S)-2-methylpyrrolidin-1-yl)sulfonyl)ethyl)-3-oxomorpholin-2-yl)acetic acid or 2-((2S,5R,6R)-6-(3-chlorophenyl)-5-(4-chlorophenyl)-4-((S)-1-cyclopropyl-2-(((S)-2-methylpyrrolidin-1-yl)sulfonyl)ethyl)-3-oxomorpholin-2-yl)acetic acid] | < 1 nM
5 | O=C1[C@@H](Cc2cnn[nH]2)O[C@H](c2cccc(Cl)c2)[C@@H](c2ccc(Cl)cc2)N1[C@H](CN(c1ccccc1F)S(=O)(=O)C1CC1)C1CC1 (single isomer, unassigned) [Example 395, N-((S)-2-((2R,5R,6R)-2-((1H-1,2,3-Triazol-5-yl)methyl)-6-(3-chlorophenyl)-5-(4-chlorophenyl)-3-oxomorpholino)-2-cyclopropylethyl)-N-(2-fluorophenyl)cyclopropanesulfonamide or N-((S)-2-((2S,5R,6R)-2-((1H-1,2,3-triazol-5-yl)methyl)-6-(3-chlorophenyl)-5-(4-chlorophenyl)-3-oxomorpholino)-2-cyclopropylethyl)-N-(2-fluorophenyl)cyclopropanesulfonamide] | 1 nM
6 | CC(C)(C)NS(=O)(=O)C[C@H](C1CC1)N1C(=O)[C@@H](CC(=O)O)O[C@H](c2cccc(Cl)c2)[C@H]1c1ccc(Cl)cc1 (single isomer, unassigned) [Example 292, 2-((2R,5R,6R)-4-((S)-2-(N-(tert-Butyl)sulfamoyl)-1-cyclopropylethyl)-6-(3-chlorophenyl)-5-(4-chlorophenyl)-3-oxomorpholin-2-yl)acetic acid or 2-((2S,5R,6R)-4-((S)-2-(N-(tert-butyl)sulfamoyl)-1-cyclopropylethyl)-6-(3-chlorophenyl)-5-(4-chlorophenyl)-3-oxomorpholin-2-yl)acetic acid] | < 1 nM
7 | 2-((2R,5R,6R)-6-(3-Chlorophenyl)-5-(4-chlorophenyl)-4-((3S,5S)-5-hydroxyhexan-3-yl)-3-oxomorpholin-2-yl)acetic acid or 2-((2R,5R,6R)-6-(3-Chlorophenyl)-5-(4-chlorophenyl)-4-((3S,5R)-5-hydroxyhexan-3-yl)-3-oxomorpholin-2-yl)acetic acid [Example 126] | 61 nM
8 | CC(C)[C@@H](CN(c1ccccc1F)S(=O)(=O)C(C)(C)C)N1C(=O)[C@@H](CC(=O)O)O[C@H](c2cccc(Cl)c2)[C@H]1c1ccc(Cl)cc1 (single isomer, unassigned) [Example 200, 2-((2R,5R,6R)-6-(3-chlorophenyl)-5-(4-chlorophenyl)-4-((S)-1-(N-(2-fluorophenyl)-2-methylpropan-2-ylsulfonamido)-3-methylbutan-2-yl)-3-oxomorpholin-2-yl)acetic acid or 2-((2S,5R,6R)-6-(3-chlorophenyl)-5-(4-chlorophenyl)-4-((S)-1-(N-(2-fluorophenyl)-2-methylpropan-2-ylsulfonamido)-3-methylbutan-2-yl)-3-oxomorpholin-2-yl)acetic acid] | 1 nM
9 | NC(=O)C[C@H]1O[C@H](c2cccc(Cl)c2)[C@@H](c2ccc(Cl)cc2)N([C@H](CN(c2c(F)cccc2F)S(=O)(=O)C2CC2)C2CC2)C1=O (single isomer, unassigned) [Example 358, 2-((2R,5R,6R)-6-(3-Chlorophenyl)-5-(4-chlorophenyl)-4-((S)-1-cyclopropyl-2-(N-(2,6-difluorophenyl)cyclopropanesulfonamido)ethyl)-3-oxomorpholin-2-yl)acetamide or 2-((2S,5R,6R)-6-(3-chlorophenyl)-5-(4-chlorophenyl)-4-((S)-1-cyclopropyl-2-(N-(2,6-difluorophenyl)cyclopropanesulfonamido)ethyl)-3-oxomorpholin-2-yl)acetamide] | < 1 nM
10 | CC(C)[C@@H](CS(=O)(=O)C(C)(C)C)N1C(=O)[C@@H](CC(=O)O)O[C@H](c2cccc(Cl)c2)[C@H]1c1ccc(Cl)c(F)c1 (single isomer, unassigned) [Example 311] | 5 nM
11 | C[C@@H](CS(=O)(=O)C(C)(C)C)N1C(=O)[C@H](CC(=O)NO)O[C@H](c2cccc(Cl)c2)[C@H]1c1ccc(Cl)cc1 (single isomer, unassigned) [Example 229, 2-((2S,5R,6R)-4-((S)-1-(tert-butylsulfonyl)propan-2-yl)-6-(3-chlorophenyl)-5-(4-chlorophenyl)-3-oxomorpholin-2-yl)-N-hydroxyacetamide or 2-((2R,5R,6R)-4-((S)-1-(tert-butylsulfonyl)propan-2-yl)-6-(3-chlorophenyl)-5-(4-chlorophenyl)-3-oxomorpholin-2-yl)-N-hydroxyacetamide] | 8 nM
12 | O=C(O)C[C@H]1O[C@H](c2cccc(Cl)c2)[C@@H](c2ccc(Cl)cc2)N([C@H](CN(c2c(F)cccc2F)S(=O)(=O)C2CC2)C2CC2)C1=O (single isomer, unassigned) [Example 251, 2-((2R,5R,6R)-6-(3-chlorophenyl)-5-(4-chlorophenyl)-4-((S)-1-cyclopropyl-2-(N-(2,6-difluorophenyl)cyclopropanesulfonamido)ethyl)-3-oxomorpholin-2-yl)acetic acid or 2-((2S,5R,6R)-6-(3-chlorophenyl)-5-(4-chlorophenyl)-4-((S)-1-cyclopropyl-2-(N-(2,6-difluorophenyl)cyclopropanesulfonamido)ethyl)-3-oxomorpholin-2-yl)acetic acid] | < 1 nM
13 | Cc1n[nH]c(C[C@H]2O[C@H](c3cccc(Cl)c3)[C@@H](c3ccc(Cl)cc3)N([C@H](CN(c3ccccc3F)S(=O)(=O)C3CC3)C3CC3)C2=O)n1 (single isomer, unassigned) [Example 392, N-((S)-2-((2R,3R,6R)-2-(3-Chlorophenyl)-3-(4-chlorophenyl)-6-((3-methyl-1H-1,2,4-triazol-5-yl)methyl)-5-oxomorpholino)-2-cyclopropylethyl)-N-(2-fluorophenyl)cyclopropanesulfonamide or N-((S)-2-((2S,3R,6R)-2-(3-chlorophenyl)-3-(4-chlorophenyl)-6-((3-methyl-1H-1,2,4-triazol-5-yl)methyl)-5-oxomorpholino)-2-cyclopropylethyl)-N-(2-fluorophenyl)cyclopropanesulfonamide] | < 1 nM
14 | CC[C@@H](CS(=O)(=O)C(C)(C)C)N1C(=O)[C@H](Cc2nnn[nH]2)O[C@H](c2cccc(Cl)c2)[C@H]1c1ccc(Cl)cc1 [Example 383, (2S,5R,6R)-2-((1H-Tetrazol-5-yl)methyl)-4-((S)-1-(tert-butylsulfonyl)butan-2-yl)-6-(3-chlorophenyl)-5-(4-chlorophenyl)morpholin-3-one] | < 1 nM
15 | CC[C@@H](CN(c1ccccc1F)S(=O)(=O)C1CC1)N1C(=O)[C@@H](CC(=O)NS(=O)(=O)C(C)C)O[C@H](c2cccc(Cl)c2)[C@H]1c1ccc(Cl)cc1 (single isomer, unassigned) [Example 259, 2-((2R,5R,6R)-6-(3-chlorophenyl)-5-(4-chlorophenyl)-4-((S)-1-(N-(2-fluorophenyl)cyclopropanesulfonamido)butan-2-yl)-3-oxomorpholin-2-yl)-N-(isopropylsulfonyl)acetamide or 2-((2S,5R,6R)-6-(3-chlorophenyl)-5-(4-chlorophenyl)-4-((S)-1-(N-(2-fluorophenyl)cyclopropanesulfonamido)butan-2-yl)-3-oxomorpholin-2-yl)-N-(isopropylsulfonyl)acetamide] | 1 nM
16 | CC[C@@H](CS(=O)(=O)c1ccccc1Cl)N1C(=O)[C@@H](CC(=O)O)O[C@H](c2cccc(Cl)c2)[C@H]1c1ccc(Cl)cc1 (single isomer, unassigned) [Example 137, 2-((2R,5R,6R)-6-(3-chlorophenyl)-5-(4-chlorophenyl)-4-((S)-1-((2-chlorophenyl)sulfonyl)butan-2-O-3-oxomorpholin-2-yl)acetic acid or 2-((2S,5R,6R)-6-(3-chlorophenyl)-5-(4-chlorophenyl)-4-((S)-1-((2-chlorophenyl)sulfonyl)butan-2-yl)-3-oxomorpholin-2-yl)acetic acid] | 5 nM
